Experimental data reported in US20180200293A1, “STABILIZED GOLD NANOPARTICLES” (priority 2014, published 2018).

Tests used:
[1] = Electron capture by AuNPs in water, muon spin resonance (μSR); settings: degassed 0.1 M aqueous surfactant reference solution, absence of AuNPs
Source text: To deconstruct the complex electron-transfer reactions in water, we used a highly sensitive spectroscopic technique involving the positive muon (μ+) using the muon spin resonance (μSR) technique (18). The μSR technique is a type of spin spectroscopy that makes use of short-lived subatomic particles, muons (μ^+), which are sensitive magnetic and electronic probes of matter.
A degassed 0.1 M aqueous solution of the dissolved surfactant (bac-14) was used as a reference. […] These electrons therefore combine with positive muons or MuH2O^+ ions to form paramagnetic muonium, an ultra-light hydrogen atom (0.11H) that adds to the aromatic ring of the surfactant (FIG. 15).
The diamagnetic fraction shown in the transverse field spectra (FIG. 17) is enhanced when muons enter the AuNP solution, as compared with the reference solution containing a similar surfactant concentration and evaluated under the same experimental conditions (same sample geometry and magnetic field).
In aqueous solutions, the competition of Reactions 1-5 in the radiation track determines the muon fractions (19-21). […]
where [AuNP] is the AuNP concentration calculated to be 4.89×10^-7 M (see supplementary information) and the muon thermalization rate (10) is at least 1 ns−1.
The lower limit of the electron capture rate constant (ke) for the AuNPs, using Eq. 1, was determined to be 2×10^15 M^−1 s^−1. […]

[2] = scavenger concentrations as high as 2 M; cited from earlier work

Compound | trapping of solvated or pre-solvated electrons [1] | electron capture rate (reported for known scavengers) [2] [M⁻¹ s⁻¹]
CCCCCCCCCCCCCC[N+](C)(C)Cc1ccccc1.[Cl-] [bac-14, Benzyldimethyltetradecylammonium chloride] | unable to effectively trap the solvated or pre-solvated electrons | –
C[S+](C)[O-] [DMSO] | – | 8.1e+11
O=[N+]([O-])[O-].[K+] [KNOB] | – | 1.2e+13
CC(C)O [isopropanol] | – | 2.3e+11
